Results taken from patent US6413995B1, “Cinnamamide derivatives and drug compositions containing the same” (Tsumura & Co., priority 1999, dated 2002).
Read-outs that look alike come from different tables or passages of the source.

Legend:
IL-10 = test: Inhibition of IL-10 production by mouse peritoneal macrophages (ELISA); format: cell-based, mice; details: Macrophage, 48 hours, read-out: Inhibitory rate (%) IL-10
Procedure: (§1) C57BL/6CrSlc male mice were intraperitoneally injected with 2.0 ml of 3% Brewer tioglycolate medium. Three days later, macrophages were collected from the abdominal cavity with 5.0 ml Hank's balanced salt solution, and then equally divided into each well of a 48-well plate using RPMI 1640 medium supplemented with 10% FBS (Fetal Bovine Serum), followed by incubation in a CO2 incubator for 1 hour. After the macrophages adhered to the walls of the plate, they were incubated for 48 hours in the presence of a test compound with different concentrations. Following the incubation, the supernatant was collected from each well, assayed for IL-6, IL-10 and L-12 by ELISA to determine inhibitory rates against the production of these interleukins.

Thromboxane A2 Synthase = target: T1, Thromboxane A2 Synthase (Rattus norvegicus, UniProt P49430); test: Inhibitory effect on thromboxane A2 synthase: TXB2 in rat platelet rich plasma; format: cell-based, rats; details: 10 μmol/l, rat PRP
T1 construct: centrifuged at 1,300 rpm for 7 minutes to obtain platelet rich plasma (PRP); from tissue; host or cells: platelet rich plasma (washed platelets) from the abdominal aorta blood of Sprague-Dawley rats
T1 sequence (P49430 1-533): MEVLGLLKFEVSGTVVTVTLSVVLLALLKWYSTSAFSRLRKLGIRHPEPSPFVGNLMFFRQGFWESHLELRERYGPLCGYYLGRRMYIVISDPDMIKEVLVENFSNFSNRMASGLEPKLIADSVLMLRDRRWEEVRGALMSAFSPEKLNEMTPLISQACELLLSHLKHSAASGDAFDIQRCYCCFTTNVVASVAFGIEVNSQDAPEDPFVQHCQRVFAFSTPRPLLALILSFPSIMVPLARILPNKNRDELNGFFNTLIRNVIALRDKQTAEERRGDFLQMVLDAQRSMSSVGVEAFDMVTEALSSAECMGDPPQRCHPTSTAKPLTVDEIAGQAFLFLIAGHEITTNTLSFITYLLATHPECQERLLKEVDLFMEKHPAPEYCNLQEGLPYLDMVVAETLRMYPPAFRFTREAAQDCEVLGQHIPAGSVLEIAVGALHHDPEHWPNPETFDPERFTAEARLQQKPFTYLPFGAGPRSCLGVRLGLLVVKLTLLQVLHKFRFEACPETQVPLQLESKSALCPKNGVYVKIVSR
Procedure: Eight week old Sprague-Dawley male rats were used in this example. The rats were anesthetized with pentobarbital sodium. The blood was collected from the abdominal aorta using a heparinized syringe, and centrifuged at 1,300 rpm for 7 minutes to obtain platelet rich plasma (PRP). PRP was suspended in an equivalent volume of a buffer containing 25 mmol/l Tris-HCl, 130 mmol/l sodium chloride and 0.3 mmol/l EDTA (pH 7.4)(buffer A), followed by centrifugation at 4° C., at 1,500 rpm for 5 minutes. This procedure was repeated twice, and PRP was finally suspended in a buffer containing 25 mmol/l Tris-HCl, 130 mmol/l, 0.1% glucose and 0.1% albumin (pH7.4)(buffer B).
5×10^6 cells/mm^3 PRP preparation in buffer B was divided into each well of a 96-well plate in an amount of 150 μl/well. Each test substance was prepared at a final concentration of 10 μmol/l and added to the PRP preparation in an amount of 50 μl/well. Immediately after addition of the test substance, 5 μl of an aggregation-inducing agent, type IV collagen (1 mg/ml) or arachidonic acid (50 mmol/l), was added and incubated for 10 minutes. 20 μl of an EDTA-indomethacin solution was added to the each well to stop the reaction. The supernatant was assayed for thromboxane B2 (TXB2), stable metabolite of thromboxane A2 (TXA2), using a TXB2 measurement kit (Cayman).

[1] = system: Rats with Minimal Change Nephrosis; test: Inhibitory effects on urinary proteins in rats with minimal change nephrosis (Puromycin Aminonucleoside); format: in vivo; details: S.D. male rats, PA 50 mg/kg i.v., test drug 2 mg/kg/day from day 6 to day 11, assayed at day 11
Procedure: Six week old S.D. male rats were intravenously injected with Puromycin Aminonucleoside (PA; SIGMA)at a dose of 50 mg/kg so as to develop nephrosis. Six days after PA treatment, the rats were administered with a test drug at a dose of 2 mg/kg/day by day 11. Each rat was assayed for an excreted urinary protein level at day 11 to determine an inhibitory rate.

IL-12 = test: Inhibition of IL-12 production by mouse peritoneal macrophages (ELISA); format: cell-based, mice; details: Macrophage, 48 hours, read-out: Inhibitory rate (%) IL-12; for inhibition at 10 µM: 10 μM/L
Procedure: as §1

IL-6 = test: Inhibition of IL-6 production by mouse peritoneal macrophages (ELISA); format: cell-based, mice; details: Macrophage, 48 hours, read-out: Inhibitory rate (%) IL-6
Procedure: as §1

Compound: Cl.O=C(O)CCc1ccc(/C=C/C(=O)NCc2cccnc2)cc1
- melting point: 212 °C

Compound: CCOC(=O)COc1ccc(/C=C/C(=O)NCc2cccnc2)cc1 [Example 1, Ethyl [4-[(E)-2-[N-(3-Pyridylmethyl)carbamoyl]ethenyl]phenoxy]acetate]
- inhibition at 1 µg/mL (IL-10; 1 μg/ml): 2.1%
- inhibition at 5 µg/mL (IL-10; 5 μg/ml): 29.1%
- inhibition at 10 µg/mL (IL-10; 10 μg/ml): 23.7%
- inhibition at 10 µM (Thromboxane A2 Synthase; arachidonic acid, 10 minutes, read-out: TXB2 induced by arachidonic acid (Inhibitory rate; %)): 67%
- inhibition at 10 µM (Thromboxane A2 Synthase; type IV collagen, 10 minutes, read-out: TXB2 induced by collagen (Inhibitory rate; %)): 32%
- inhibition at 10 µM (Thromboxane A2 Synthase; summary of Table 3, read-out: inhibitory activity against TXA2 production mediated by collagen or arachidonate): ≥ 50%
- Inhibitory rate (%) of excreted urinary protein level [1]: 41%
- inhibition at 1 µg/mL (IL-12; 1 μg/ml): 32.4%
- inhibition at 5 µg/mL (IL-12; 5 μg/ml): 39.5%
- inhibition at 10 µg/mL (IL-12; 10 μg/ml): 64.6%
- inhibition at 1 µg/mL (IL-6; 1 μg/ml): 29.3%
- inhibition at 5 µg/mL (IL-6; 5 μg/ml): 34.5%
- inhibition at 10 µg/mL (IL-6; 10 μg/ml): 40.4%

Compound: C/C(=C\C(=O)NCc1cccnc1)c1ccc(OCC(=O)O)cc1 [Example 86, [4-[(E)-1-methyl-2-[N-(3-pyridylmethyl)carbamoyl]ethenyl]phenoxy]acetic acid]
- melting point: 228 to 229 °C
- inhibition at 10 µM (IL-12): 48.4%

Compound: O=C(O)CSc1ccc(/C=C/C(=O)NCc2cccnc2)cc1 [Example 89, [[4-[(E)-2-[N-(3-pyridylmethyl)carbamoyl]ethenyl]phenyl]thio]acetic acid]
- melting point: 160 to 161 °C
- inhibition at 10 µM (IL-12): 51.1%
